Legend:
[1] = test system: MV4-11; assay: Antiproliferative activity against human MV4-11 cells incubated for 72 hrs by Celltiter-glo assay; type: functional, cell-based; conditions: MV4-11, 72 h
[2] = target: T1, Wee1-like protein kinase (Homo sapiens, UniProt P30291); assay: Inhibition of recombinant human Wee1 (214 to end residues) incubated for 1 hr in presence of tracer 178 by fluorescence based assay
Target sequence in this assay (P30291 whole entry): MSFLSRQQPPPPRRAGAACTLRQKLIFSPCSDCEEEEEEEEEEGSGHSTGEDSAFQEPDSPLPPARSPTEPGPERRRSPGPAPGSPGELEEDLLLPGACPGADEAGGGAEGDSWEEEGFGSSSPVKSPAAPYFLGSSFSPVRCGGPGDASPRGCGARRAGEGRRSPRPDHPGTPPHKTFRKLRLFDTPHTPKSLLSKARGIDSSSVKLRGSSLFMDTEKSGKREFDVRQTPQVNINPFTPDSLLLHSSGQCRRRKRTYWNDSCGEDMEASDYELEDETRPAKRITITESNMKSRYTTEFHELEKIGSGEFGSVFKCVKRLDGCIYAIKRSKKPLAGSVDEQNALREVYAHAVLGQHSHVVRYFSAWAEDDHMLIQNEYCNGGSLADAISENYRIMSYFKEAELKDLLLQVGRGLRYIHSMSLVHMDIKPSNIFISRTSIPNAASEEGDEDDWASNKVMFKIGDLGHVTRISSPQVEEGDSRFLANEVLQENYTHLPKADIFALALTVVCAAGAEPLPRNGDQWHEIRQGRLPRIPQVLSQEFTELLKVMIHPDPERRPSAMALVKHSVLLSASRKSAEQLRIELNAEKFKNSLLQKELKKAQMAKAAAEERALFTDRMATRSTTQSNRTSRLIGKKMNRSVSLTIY

[3] = test system: T47D; assay: Antiproliferative activity against human T47D cells incubated for 72 hrs by Celltiter-glo assay; type: functional, cell-based
[4] = Metabolic stability in mouse liver microsomes assessed as parent compound remaining preincubated with NADPH for 5 mins followed by compound addition and measured upto 90 mins by LC-MS/MS analysis; type: ADME, Microsome; conditions: read-out: Stability
[5] = target: T1, Wee1-like protein kinase; assay: Inhibition of Wee1 in human MV4-11 cells assessed as reduction in phosphorylation of CDK1-Y15 incubated for 24 hrs by Western blot analysis; type: cell-based; conditions: dose 0.01-5 µM
Target sequence in this assay (P30291 whole entry, looked up): as the sequence (P30291 whole entry) above

[6] = test system: MV4-11; assay: Induction of DNA damage in human MV4-11 cells assessed as increase in gamma-H2AX expression incubated for 24 hrs by Western blot analysis; type: functional, cell-based; conditions: dose 0.05-0.2 µM
[7] = test system: MV4-11; assay: Induction of cell cycle arrest in human MV4-11 cells assessed as accumulation of cells at G0/G1 phase at 800 nM incubated for 24 hrs by flow cytometry analysis; type: functional
[8] = test system: MV4-11; assay: Induction of apoptosis in human MV4-11 cells assessed as viable cells at 200 nM after 48 hrs by Annexin V FITC/PI staining based flow cytometry analysis (reference value: 86.6%); type: functional; conditions: read-out: Activity
[9] = test system: MV4-11; assay: Induction of apoptosis in human MV4-11 cells assessed as early apoptotic cells at 200 nM after 48 hrs by Annexin V FITC/PI staining based flow cytometry analysis (reference value: 9.33%); type: functional
[10] = test system: MV4-11; assay: Induction of apoptosis in human MV4-11 cells assessed as late apoptotic cells at 200 nM after 48 hrs by Annexin V FITC/PI staining based flow cytometry analysis (reference value: 4.07%); type: functional
[11] = test system: MV4-11; assay: Induction of apoptosis in human MV4-11 cells assessed as necrotic cells at 200 nM after 48 hrs by Annexin V FITC/PI staining based flow cytometry analysis (reference value: 0.00968%); type: functional
[12] = test system: MV4-11; assay: Induction of apoptosis in human MV4-11 cells assessed as viable cells at 400 nM after 48 hrs by Annexin V FITC/PI staining based flow cytometry analysis (reference value: 86.6%); type: functional; conditions: read-out: Activity
[13] = test system: MV4-11; assay: Induction of apoptosis in human MV4-11 cells assessed as early apoptotic cells at 400 nM after 48 hrs by Annexin V FITC/PI staining based flow cytometry analysis (reference value: 9.33%); type: functional
[14] = test system: MV4-11; assay: Induction of apoptosis in human MV4-11 cells assessed as late apoptotic cells at 400 nM after 48 hrs by Annexin V FITC/PI staining based flow cytometry analysis (reference value: 4.07%); type: functional
[15] = test system: MV4-11; assay: Induction of apoptosis in human MV4-11 cells assessed as necrotic cells at 400 nM after 48 hrs by Annexin V FITC/PI staining based flow cytometry analysis (reference value: 0.00968%); type: functional
[16] = test system: MV4-11; assay: Induction of apoptosis in human MV4-11 cells assessed as viable cells at 800 nM after 48 hrs by Annexin V FITC/PI staining based flow cytometry analysis (reference value: 86.6%); type: functional; conditions: read-out: Activity
[17] = test system: MV4-11; assay: Induction of apoptosis in human MV4-11 cells assessed as early apoptotic cells at 800 nM after 48 hrs by Annexin V FITC/PI staining based flow cytometry analysis (reference value: 9.33%); type: functional
[18] = test system: MV4-11; assay: Induction of apoptosis in human MV4-11 cells assessed as late apoptotic cells at 800 nM after 48 hrs by Annexin V FITC/PI staining based flow cytometry analysis (reference value: 4.07%); type: functional
[19] = test system: MV4-11; assay: Induction of apoptosis in human MV4-11 cells assessed as necrotic cells at 800 nM after 48 hrs by Annexin V FITC/PI staining based flow cytometry analysis (reference value: 0.00968%); type: functional
[20] = test system: MV4-11; assay: Induction of apoptosis in human MV4-11 cells assessed as viable cells at 1600 nM after 48 hrs by Annexin V FITC/PI staining based flow cytometry analysis (reference value: 86.6%); type: functional; conditions: read-out: Activity
[21] = test system: MV4-11; assay: Induction of apoptosis in human MV4-11 cells assessed as early apoptotic cells at 1600 nM after 48 hrs by Annexin V FITC/PI staining based flow cytometry analysis (reference value: 9.33%); type: functional
[22] = test system: MV4-11; assay: Induction of apoptosis in human MV4-11 cells assessed as late apoptotic cells at 1600 nM after 48 hrs by Annexin V FITC/PI staining based flow cytometry analysis (reference value: 4.07%); type: functional
[23] = test system: MV4-11; assay: Induction of apoptosis in human MV4-11 cells assessed as necrotic cells at 1600 nM after 48 hrs by Annexin V FITC/PI staining based flow cytometry analysis (reference value: 0.00968%); type: functional
[24] = test system: MV4-11; assay: Induction of apoptosis in human MV4-11 cells assessed as viable cells at 3200 nM after 48 hrs by Annexin V FITC/PI staining based flow cytometry analysis (reference value: 86.6%); type: functional; conditions: read-out: Activity
[25] = test system: MV4-11; assay: Induction of apoptosis in human MV4-11 cells assessed as early apoptotic cells at 3200 nM after 48 hrs by Annexin V FITC/PI staining based flow cytometry analysis (reference value: 9.33%); type: functional
[26] = test system: MV4-11; assay: Induction of apoptosis in human MV4-11 cells assessed as late apoptotic cells at 3200 nM after 48 hrs by Annexin V FITC/PI staining based flow cytometry analysis (reference value: 4.07%); type: functional
[27] = test system: MV4-11; assay: Induction of apoptosis in human MV4-11 cells assessed as necrotic cells at 3200 nM after 48 hrs by Annexin V FITC/PI staining based flow cytometry analysis (reference value: 0.00968%); type: functional

CC(=O)Nc1cc(Nc2cc3ncn(-c4c(Cl)cccc4Cl)c(=O)c3cn2)ccc1N1C[C@@H](C)N[C@@H](C)C1 gave an IC50 [1] of 0.763 µM, an IC50 [2] of 0.021 µM and an IC50 [3] of 4.64 µM. For the same compound, the remaining at 1.5 h [4] was 60%, the inhibition [5] was “Dose-Dependent Effect” and the Activity [6] was “Dose-Dependent Effect”. It also gave an Activity [7] of 63%, a viability at 0.2 µM [8] of 84.7% and an Activity [9] of 12%. The Activity [10] was 3.34%, the Activity [11] was 0.00954% and the viability at 0.4 µM [12] was 84.5%. The Activity [13] was 10.4%, the Activity [14] was 5.09% and the Activity [15] was 0.02%. For the same compound, the viability at 0.8 µM [16] was 81.7%, the Activity [17] was 12.2% and the Activity [18] was 0.12%. The Activity [19] was 0.029%, the viability at 1.6 µM [20] was 82.4% and the Activity [21] was 12.4%. For the same compound, the Activity [22] was 5.11%, the Activity [23] was 0.048% and the viability at 3.2 µM [24] was 66.7%. For the same compound, the Activity [25] was 21.3%, the Activity [26] was 12% and the Activity [27] was 0.01%.
